This is an account of results in the supplement of paper PMC10307832.

Assay in all cases: relative viability (nuclei count vs DMSO), 5 days (fraction); higher = more cells survive
Compound in the assay “BI-D1870 + Alpelisib”: CC(C)CCN1c2nc(Nc3cc(F)c(O)c(F)c3)ncc2N(C)C(=O)C1C [BI-D1870] + Cc1nc(NC(=O)N2CCC[C@H]2C(N)=O)sc1-c1ccnc(C(C)(C)C(F)(F)F)c1 [Alpelisib] (partner 2 µM)
An outline of the steps:
(§1)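 A single step with final 0.05% Triton X-100, 1% formaldehyde and 1 ug/ml Hoechst fixed the cells and stained nuclei 5 days after treatment. Lung cancer cell lines in 1536-well plates had been treated by pin tool the day after seeding with one drug alone or a fixed anchor-drug dose plus five library-drug doses (not always all listed) in √10 steps, and nuclei were counted on 4× images. Relative viability is the ratio of nuclei in treated wells to nuclei in vehicle wells, taken as the median of duplicate plates.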

Compound in the assay “BI-D1870 + Phenformin”: CC(C)CCN1c2nc(Nc3cc(F)c(O)c(F)c3)ncc2N(C)C(=O)C1C [BI-D1870] + N=C(N)NC(=N)NCCc1ccccc1 [Phenformin] (partner 250 µM)
An outline of the steps: as §1

Compound in the assay “Zebularine + Vorinostat”: O=c1ncccn1[C@@H]1O[C@H](CO)[C@@H](O)[C@H]1O [Zebularine] + O=C(CCCCCCC(=O)Nc1ccccc1)NO [Vorinostat] (partner 1 µM)
An outline of the steps:
as §1

Compound in the assay “BI-D1870 + Trametinib”: CC(C)CCN1c2nc(Nc3cc(F)c(O)c(F)c3)ncc2N(C)C(=O)C1C [BI-D1870] + CC(=O)Nc1cccc(-n2c(=O)n(C3CC3)c(=O)c3c(Nc4ccc(I)cc4F)n(C)c(=O)c(C)c32)c1 [Trametinib] (partner 0.02 µM)
In short, it runs like this:
as §1

In the case of HCC-15, the relative viability with BI-D1870 + Alpelisib (first compound 0.04 µM) came out at 0.907; in the assay with BI-D1870 + Alpelisib (first compound 0.1265 µM) it was 0.812; with BI-D1870 + Alpelisib (first compound 0.4 µM), 0.882; with BI-D1870 + Alpelisib (first compound 1.265 µM) it was 0.861; with BI-D1870 + Alpelisib (first compound 4 µM), 0.646; in the assay with BI-D1870 + Phenformin (first compound 0.04 µM), 0.56. Moreover, the relative viability was 0.468 with BI-D1870 + Phenformin (first compound 0.1265 µM); 0.417 with BI-D1870 + Phenformin (first compound 0.4 µM); 0.426 with BI-D1870 + Phenformin (first compound 1.265 µM); 0.394 with BI-D1870 + Phenformin (first compound 4 µM); 0.986 in the assay with Zebularine + Vorinostat (first compound 1 µM); 0.9 in the assay with Zebularine + Vorinostat (first compound 3.162 µM). For the same cell line, the relative viability in the assay with Zebularine + Vorinostat (first compound 10 µM) was 0.665; in the assay with Zebularine + Vorinostat (first compound 31.62 µM), 0.759; with Zebularine + Vorinostat (first compound 100 µM), 0.436; in the assay with BI-D1870 + Trametinib (first compound 0.04 µM) it was 0.376; with BI-D1870 + Trametinib (first compound 0.1265 µM), 0.35; with BI-D1870 + Trametinib (first compound 0.4 µM), 0.371. In addition, the relative viability is 0.444 with BI-D1870 + Trametinib (first compound 1.265 µM) and 0.392 with BI-D1870 + Trametinib (first compound 4 µM).

On to HCC-44, for which the relative viability with BI-D1870 + Alpelisib (first compound 0.04 µM) was found to be 0.911; with BI-D1870 + Alpelisib (first compound 0.1265 µM) it was 0.817; in the assay with BI-D1870 + Alpelisib (first compound 0.4 µM) it was 0.846; in the assay with BI-D1870 + Alpelisib (first compound 1.265 µM) it was 0.695; in the assay with BI-D1870 + Alpelisib (first compound 4 µM), 0.595; in the assay with BI-D1870 + Phenformin (first compound 0.04 µM), 0.315. Further, the relative viability turned out to be 0.211 in the assay with BI-D1870 + Phenformin (first compound 0.1265 µM); 0.186 with BI-D1870 + Phenformin (first compound 0.4 µM); 0.256 with BI-D1870 + Phenformin (first compound 1.265 µM); 0.232 with BI-D1870 + Phenformin (first compound 4 µM); 1.15 in the assay with Zebularine + Vorinostat (first compound 1 µM); 1.14 with Zebularine + Vorinostat (first compound 3.162 µM). Further, the relative viability amounted to 1.09 with Zebularine + Vorinostat (first compound 10 µM); 1.19 with Zebularine + Vorinostat (first compound 31.62 µM); 0.553 in the assay with Zebularine + Vorinostat (first compound 100 µM); 1.04 with BI-D1870 + Trametinib (first compound 0.04 µM); 1.06 in the assay with BI-D1870 + Trametinib (first compound 0.1265 µM); 1.07 with BI-D1870 + Trametinib (first compound 0.4 µM). The values for the relative viability with BI-D1870 + Trametinib (first compound 1.265 µM) and in the assay with BI-D1870 + Trametinib (first compound 4 µM) were 1.04 and 1.2, respectively.

Consider HCC-78, for which the relative viability amounted to 0.323 in the assay with BI-D1870 + Alpelisib (first compound 0.04 µM); 0.279 with BI-D1870 + Alpelisib (first compound 0.1265 µM); 0.301 in the assay with BI-D1870 + Alpelisib (first compound 0.4 µM); 0.321 in the assay with BI-D1870 + Alpelisib (first compound 1.265 µM); 0.246 with BI-D1870 + Alpelisib (first compound 4 µM); 0.72 with BI-D1870 + Phenformin (first compound 0.04 µM). The relative viability was determined as 0.796 in the assay with BI-D1870 + Phenformin (first compound 0.1265 µM); 0.795 in the assay with BI-D1870 + Phenformin (first compound 0.4 µM); 0.822 with BI-D1870 + Phenformin (first compound 1.265 µM); 0.593 with BI-D1870 + Phenformin (first compound 4 µM); 0.535 in the assay with Zebularine + Vorinostat (first compound 1 µM); 0.462 with Zebularine + Vorinostat (first compound 3.162 µM). The relative viability stood at 0.444 in the assay with Zebularine + Vorinostat (first compound 31.62 µM); 0.337 with Zebularine + Vorinostat (first compound 100 µM); 0.526 with BI-D1870 + Trametinib (first compound 0.04 µM); 0.655 with BI-D1870 + Trametinib (first compound 0.1265 µM); 0.675 with BI-D1870 + Trametinib (first compound 0.4 µM); 1.03 with BI-D1870 + Trametinib (first compound 1.265 µM). Besides, the relative viability with BI-D1870 + Trametinib (first compound 4 µM) was found to be 0.569.

Turning to HCC-366, the relative viability with BI-D1870 + Alpelisib (first compound 0.04 µM) was found to be 0.47; with BI-D1870 + Alpelisib (first compound 0.1265 µM) it was 0.351; in the assay with BI-D1870 + Alpelisib (first compound 0.4 µM), 0.344; in the assay with BI-D1870 + Alpelisib (first compound 1.265 µM), 0.514; with BI-D1870 + Alpelisib (first compound 4 µM), 0.359; with BI-D1870 + Phenformin (first compound 0.04 µM), 0.705. In addition, the relative viability in the assay with BI-D1870 + Phenformin (first compound 0.1265 µM) was 0.587; with BI-D1870 + Phenformin (first compound 0.4 µM), 0.608; with BI-D1870 + Phenformin (first compound 1.265 µM) it was 0.608; in the assay with BI-D1870 + Phenformin (first compound 4 µM), 0.573; with Zebularine + Vorinostat (first compound 1 µM), 0.488; with Zebularine + Vorinostat (first compound 3.162 µM), 0.372. Besides, the relative viability was found to be 0.26 with Zebularine + Vorinostat (first compound 10 µM); 0.343 with Zebularine + Vorinostat (first compound 31.62 µM); 0.184 with Zebularine + Vorinostat (first compound 100 µM); 0.347 with BI-D1870 + Trametinib (first compound 0.04 µM); 0.311 in the assay with BI-D1870 + Trametinib (first compound 0.1265 µM); 0.328 with BI-D1870 + Trametinib (first compound 0.4 µM). Further, the relative viability in the assay with BI-D1870 + Trametinib (first compound 1.265 µM) came out at 0.39; with BI-D1870 + Trametinib (first compound 4 µM) it was 0.221.

Turning to HCC-827, the relative viability was 0.991 with BI-D1870 + Alpelisib (first compound 0.04 µM); 0.959 with BI-D1870 + Alpelisib (first compound 0.1265 µM); 0.916 with BI-D1870 + Alpelisib (first compound 0.4 µM); 0.965 with BI-D1870 + Alpelisib (first compound 1.265 µM); 0.907 in the assay with BI-D1870 + Alpelisib (first compound 4 µM); 0.436 with BI-D1870 + Phenformin (first compound 0.04 µM). Further, the relative viability with BI-D1870 + Phenformin (first compound 0.1265 µM) came to 0.38; in the assay with BI-D1870 + Phenformin (first compound 0.4 µM) it was 0.375; with BI-D1870 + Phenformin (first compound 1.265 µM), 0.436; with BI-D1870 + Phenformin (first compound 4 µM) it was 0.366; with Zebularine + Vorinostat (first compound 1 µM), 1.04; with Zebularine + Vorinostat (first compound 3.162 µM), 0.811. For the same cell line, the relative viability with Zebularine + Vorinostat (first compound 10 µM) turned out to be 0.77; with Zebularine + Vorinostat (first compound 31.62 µM) it was 0.478; in the assay with Zebularine + Vorinostat (first compound 100 µM) it was 0.361; with BI-D1870 + Trametinib (first compound 0.04 µM), 0.551; with BI-D1870 + Trametinib (first compound 0.1265 µM) it was 0.495; with BI-D1870 + Trametinib (first compound 0.4 µM), 0.463. Moreover, the figures for the relative viability in the assay with BI-D1870 + Trametinib (first compound 1.265 µM) and with BI-D1870 + Trametinib (first compound 4 µM) were 0.456 and 0.432, respectively.

Take HOP-62: the relative viability is 1.21 with BI-D1870 + Alpelisib (first compound 0.04 µM); 1 with BI-D1870 + Alpelisib (first compound 0.1265 µM); 1.02 with BI-D1870 + Alpelisib (first compound 0.4 µM); 1.05 with BI-D1870 + Alpelisib (first compound 1.265 µM); 1.2 with BI-D1870 + Alpelisib (first compound 4 µM); 0.705 with BI-D1870 + Phenformin (first compound 0.04 µM). Further, the relative viability in the assay with BI-D1870 + Phenformin (first compound 0.1265 µM) worked out at 0.657; with BI-D1870 + Phenformin (first compound 0.4 µM), 0.719; in the assay with BI-D1870 + Phenformin (first compound 1.265 µM), 0.823; with BI-D1870 + Phenformin (first compound 4 µM) it was 0.664; in the assay with Zebularine + Vorinostat (first compound 1 µM) it was 0.717; with Zebularine + Vorinostat (first compound 3.162 µM), 0.474. In addition, the relative viability with Zebularine + Vorinostat (first compound 10 µM) was 0.365; with Zebularine + Vorinostat (first compound 31.62 µM), 0.203; with Zebularine + Vorinostat (first compound 100 µM) it was 0.22; with BI-D1870 + Trametinib (first compound 0.04 µM), 0.429; in the assay with BI-D1870 + Trametinib (first compound 0.1265 µM), 0.332; in the assay with BI-D1870 + Trametinib (first compound 0.4 µM), 0.331. In addition, the figures for the relative viability in the assay with BI-D1870 + Trametinib (first compound 1.265 µM) and with BI-D1870 + Trametinib (first compound 4 µM) were 0.367 and 0.299, respectively.

Regarding IA-LM, the relative viability in the assay with BI-D1870 + Alpelisib (first compound 0.04 µM) turned out to be 0.687; with BI-D1870 + Alpelisib (first compound 0.1265 µM), 0.673; with BI-D1870 + Alpelisib (first compound 0.4 µM) it was 0.759; with BI-D1870 + Alpelisib (first compound 1.265 µM), 0.765; in the assay with BI-D1870 + Alpelisib (first compound 4 µM) it was 0.446; with Zebularine + Vorinostat (first compound 1 µM), 1.01. The relative viability in the assay with Zebularine + Vorinostat (first compound 3.162 µM) was 0.697; with Zebularine + Vorinostat (first compound 10 µM), 0.365; in the assay with Zebularine + Vorinostat (first compound 31.62 µM), 1.02; in the assay with Zebularine + Vorinostat (first compound 100 µM), 0.854.
